What all share (experiment): 33PanQinase activity assay
Common to all, as to type: biochemical

In one test the target is T1, DDR2 (Homo sapiens, UniProt Q16832).
T1 sequence (Q16832 22-855): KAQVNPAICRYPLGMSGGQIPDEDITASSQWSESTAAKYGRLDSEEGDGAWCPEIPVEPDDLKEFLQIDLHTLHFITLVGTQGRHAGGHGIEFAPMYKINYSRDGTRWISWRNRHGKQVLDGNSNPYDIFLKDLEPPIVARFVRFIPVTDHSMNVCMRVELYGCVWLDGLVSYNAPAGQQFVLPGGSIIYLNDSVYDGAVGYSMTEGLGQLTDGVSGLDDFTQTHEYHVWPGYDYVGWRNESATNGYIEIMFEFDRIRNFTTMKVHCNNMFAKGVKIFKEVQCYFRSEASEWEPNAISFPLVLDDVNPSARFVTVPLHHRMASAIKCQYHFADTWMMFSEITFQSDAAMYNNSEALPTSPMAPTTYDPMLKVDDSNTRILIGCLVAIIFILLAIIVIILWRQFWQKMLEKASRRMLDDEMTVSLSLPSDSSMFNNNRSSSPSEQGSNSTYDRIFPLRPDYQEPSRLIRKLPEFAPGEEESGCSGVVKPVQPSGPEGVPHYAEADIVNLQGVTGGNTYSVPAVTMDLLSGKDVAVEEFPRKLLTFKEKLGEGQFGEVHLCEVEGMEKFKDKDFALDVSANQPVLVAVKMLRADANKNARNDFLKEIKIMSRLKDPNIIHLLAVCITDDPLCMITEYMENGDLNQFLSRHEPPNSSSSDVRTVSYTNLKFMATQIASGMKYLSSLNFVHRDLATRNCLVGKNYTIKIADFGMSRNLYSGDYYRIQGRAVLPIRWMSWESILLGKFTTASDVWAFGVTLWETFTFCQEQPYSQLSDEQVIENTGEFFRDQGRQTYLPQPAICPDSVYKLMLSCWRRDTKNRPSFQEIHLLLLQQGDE
The settings on record: for Residual activity: singlicate. The source says:
(§1) Table S4. Profiling of two compounds at two concentrations against 320 wild-type protein kinases; singlicate measurement; Residual activities (% of control).

For a further test, the target named is EGFR (Homo sapiens, UniProt P00533). The settings on record: for Residual activity: EGF-R, singlicate.
Excerpt: as §1

The target of a further test is ERBB2 (Homo sapiens, UniProt P04626). The settings on record: for Residual activity: singlicate.
Excerpt: as §1

The target in a further test is LCK (Homo sapiens, UniProt P06239). The settings on record: for Residual activity: LCK, singlicate.
Excerpt: as §1

For a further test, the target named is MAP4K4 (Homo sapiens, UniProt O95819). The settings on record: for MAP4K4 inhibition: 10 μM; for Residual activity: singlicate.
Excerpt: as §1

The next test deals with MKNK1 (Homo sapiens, UniProt Q9BUB5). The settings on record: for Residual activity: singlicate.
Excerpt: as §1

A further test has as its target T2, PRKG2 (Homo sapiens, UniProt Q13237).
T2 sequence (Q13237 1-762): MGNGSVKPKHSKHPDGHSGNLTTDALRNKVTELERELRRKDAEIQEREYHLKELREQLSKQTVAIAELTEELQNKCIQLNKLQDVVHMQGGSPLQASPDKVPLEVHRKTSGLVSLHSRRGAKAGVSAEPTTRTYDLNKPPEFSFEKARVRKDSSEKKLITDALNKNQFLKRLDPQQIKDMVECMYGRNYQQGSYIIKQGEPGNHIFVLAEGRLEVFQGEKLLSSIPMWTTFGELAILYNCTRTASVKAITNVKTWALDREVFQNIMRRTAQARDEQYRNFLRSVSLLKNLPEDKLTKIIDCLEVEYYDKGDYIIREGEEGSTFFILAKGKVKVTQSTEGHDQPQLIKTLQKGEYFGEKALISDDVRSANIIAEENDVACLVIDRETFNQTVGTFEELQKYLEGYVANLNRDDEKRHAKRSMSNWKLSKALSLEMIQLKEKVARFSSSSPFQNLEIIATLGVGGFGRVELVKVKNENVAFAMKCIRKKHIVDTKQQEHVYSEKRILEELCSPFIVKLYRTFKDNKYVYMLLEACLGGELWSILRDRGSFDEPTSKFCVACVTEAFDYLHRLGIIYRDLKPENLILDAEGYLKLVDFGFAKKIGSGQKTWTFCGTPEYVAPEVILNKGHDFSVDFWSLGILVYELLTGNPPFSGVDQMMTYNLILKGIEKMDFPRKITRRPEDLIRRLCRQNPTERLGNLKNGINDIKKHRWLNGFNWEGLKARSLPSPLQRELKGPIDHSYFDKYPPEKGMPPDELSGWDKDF
The settings on record: for Residual activity, PRKG2: kinase PRKG2, singlicate.
Excerpt: as §1

In another test the target is SLK (Homo sapiens, UniProt Q9H2G2). The settings on record: for SLK inhibition: 10 μM; for Residual activity, SLK: kinase SLK, singlicate.
Excerpt: as §1

The source of these data is publication PMC9329436, “Optimization of the 4-anilinoquin(az)oline scaffold as epidermal growth factor receptor (EGFR) inhibitors for chordoma utilizing a toxicology profiling assay platform” (Scientific Reports, 2022).

Chain of SLK (Q9H2G2 whole entry): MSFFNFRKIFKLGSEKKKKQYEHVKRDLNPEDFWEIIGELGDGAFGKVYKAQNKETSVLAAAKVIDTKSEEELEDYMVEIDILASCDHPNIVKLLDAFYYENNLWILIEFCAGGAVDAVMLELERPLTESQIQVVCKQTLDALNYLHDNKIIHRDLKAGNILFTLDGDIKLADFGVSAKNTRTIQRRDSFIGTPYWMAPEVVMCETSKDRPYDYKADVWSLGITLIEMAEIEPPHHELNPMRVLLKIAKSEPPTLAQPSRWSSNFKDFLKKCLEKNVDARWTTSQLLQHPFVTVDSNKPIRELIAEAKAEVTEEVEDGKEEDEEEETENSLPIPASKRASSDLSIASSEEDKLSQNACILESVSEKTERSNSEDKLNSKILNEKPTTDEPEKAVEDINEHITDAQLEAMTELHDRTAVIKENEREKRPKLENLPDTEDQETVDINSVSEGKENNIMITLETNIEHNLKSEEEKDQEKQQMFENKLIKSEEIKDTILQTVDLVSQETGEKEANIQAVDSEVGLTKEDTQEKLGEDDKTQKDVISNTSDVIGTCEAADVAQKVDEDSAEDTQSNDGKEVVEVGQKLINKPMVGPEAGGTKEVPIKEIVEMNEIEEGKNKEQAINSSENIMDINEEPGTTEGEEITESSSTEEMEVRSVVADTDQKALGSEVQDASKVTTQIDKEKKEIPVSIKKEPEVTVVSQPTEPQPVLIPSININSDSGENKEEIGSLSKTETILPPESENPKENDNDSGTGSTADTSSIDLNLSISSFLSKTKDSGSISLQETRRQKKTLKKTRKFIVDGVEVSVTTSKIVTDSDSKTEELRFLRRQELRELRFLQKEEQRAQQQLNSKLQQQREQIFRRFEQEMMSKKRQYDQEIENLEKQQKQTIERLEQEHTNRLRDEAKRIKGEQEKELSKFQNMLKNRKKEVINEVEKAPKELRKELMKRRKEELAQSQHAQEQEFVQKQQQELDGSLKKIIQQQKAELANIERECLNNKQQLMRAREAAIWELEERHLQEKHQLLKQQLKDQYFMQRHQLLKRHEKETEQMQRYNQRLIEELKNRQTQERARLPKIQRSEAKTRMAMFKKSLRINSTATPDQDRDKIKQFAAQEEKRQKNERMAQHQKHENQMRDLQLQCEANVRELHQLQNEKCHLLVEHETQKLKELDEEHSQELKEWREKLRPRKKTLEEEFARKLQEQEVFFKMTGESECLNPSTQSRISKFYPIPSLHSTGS
Chain of LCK (P06239 whole entry): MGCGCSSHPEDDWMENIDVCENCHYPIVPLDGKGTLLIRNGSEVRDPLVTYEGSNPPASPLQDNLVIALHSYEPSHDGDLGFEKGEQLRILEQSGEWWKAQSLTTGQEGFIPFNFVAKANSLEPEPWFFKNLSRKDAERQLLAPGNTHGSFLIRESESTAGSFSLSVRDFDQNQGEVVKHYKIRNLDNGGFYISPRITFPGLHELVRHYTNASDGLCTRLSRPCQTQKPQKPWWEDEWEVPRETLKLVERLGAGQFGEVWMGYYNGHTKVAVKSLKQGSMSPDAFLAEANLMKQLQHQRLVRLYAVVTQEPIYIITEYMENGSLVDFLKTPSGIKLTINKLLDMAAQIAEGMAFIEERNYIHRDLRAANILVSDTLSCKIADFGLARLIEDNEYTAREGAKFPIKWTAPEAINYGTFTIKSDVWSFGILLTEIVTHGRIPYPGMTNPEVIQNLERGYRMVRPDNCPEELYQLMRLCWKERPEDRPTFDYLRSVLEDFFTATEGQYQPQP
Chain of ERBB2 (P04626 23-1255): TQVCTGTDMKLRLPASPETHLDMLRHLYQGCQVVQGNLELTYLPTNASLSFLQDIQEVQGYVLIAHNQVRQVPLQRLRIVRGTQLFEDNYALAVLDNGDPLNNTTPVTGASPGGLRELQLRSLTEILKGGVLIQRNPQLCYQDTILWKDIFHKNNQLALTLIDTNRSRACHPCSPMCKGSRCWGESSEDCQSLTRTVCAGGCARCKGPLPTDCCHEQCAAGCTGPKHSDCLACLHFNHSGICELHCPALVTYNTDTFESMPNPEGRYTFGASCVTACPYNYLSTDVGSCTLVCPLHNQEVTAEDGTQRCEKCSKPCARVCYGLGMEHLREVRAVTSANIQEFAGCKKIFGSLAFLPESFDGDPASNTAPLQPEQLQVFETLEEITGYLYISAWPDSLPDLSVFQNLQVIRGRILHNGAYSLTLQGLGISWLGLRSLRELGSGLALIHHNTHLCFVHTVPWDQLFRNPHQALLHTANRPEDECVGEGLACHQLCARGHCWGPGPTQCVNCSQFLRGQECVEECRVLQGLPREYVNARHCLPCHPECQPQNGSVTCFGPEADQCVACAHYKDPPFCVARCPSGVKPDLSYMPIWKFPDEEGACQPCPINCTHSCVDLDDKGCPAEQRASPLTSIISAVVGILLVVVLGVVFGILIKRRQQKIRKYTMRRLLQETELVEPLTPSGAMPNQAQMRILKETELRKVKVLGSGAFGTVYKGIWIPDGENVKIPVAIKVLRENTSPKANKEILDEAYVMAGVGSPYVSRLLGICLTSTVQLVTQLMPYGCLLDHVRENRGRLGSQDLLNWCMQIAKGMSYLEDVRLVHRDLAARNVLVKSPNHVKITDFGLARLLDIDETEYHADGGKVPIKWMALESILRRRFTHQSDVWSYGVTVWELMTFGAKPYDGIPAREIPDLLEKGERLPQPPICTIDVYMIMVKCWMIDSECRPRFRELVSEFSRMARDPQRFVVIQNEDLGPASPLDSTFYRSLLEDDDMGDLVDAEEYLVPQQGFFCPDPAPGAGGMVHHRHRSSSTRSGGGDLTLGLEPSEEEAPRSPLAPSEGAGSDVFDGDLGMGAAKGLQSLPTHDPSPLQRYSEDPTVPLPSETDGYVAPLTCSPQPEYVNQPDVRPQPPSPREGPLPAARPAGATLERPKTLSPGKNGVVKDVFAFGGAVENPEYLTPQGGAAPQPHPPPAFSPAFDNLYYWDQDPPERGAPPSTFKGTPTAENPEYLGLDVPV
Chain of MAP4K4 (O95819 whole entry): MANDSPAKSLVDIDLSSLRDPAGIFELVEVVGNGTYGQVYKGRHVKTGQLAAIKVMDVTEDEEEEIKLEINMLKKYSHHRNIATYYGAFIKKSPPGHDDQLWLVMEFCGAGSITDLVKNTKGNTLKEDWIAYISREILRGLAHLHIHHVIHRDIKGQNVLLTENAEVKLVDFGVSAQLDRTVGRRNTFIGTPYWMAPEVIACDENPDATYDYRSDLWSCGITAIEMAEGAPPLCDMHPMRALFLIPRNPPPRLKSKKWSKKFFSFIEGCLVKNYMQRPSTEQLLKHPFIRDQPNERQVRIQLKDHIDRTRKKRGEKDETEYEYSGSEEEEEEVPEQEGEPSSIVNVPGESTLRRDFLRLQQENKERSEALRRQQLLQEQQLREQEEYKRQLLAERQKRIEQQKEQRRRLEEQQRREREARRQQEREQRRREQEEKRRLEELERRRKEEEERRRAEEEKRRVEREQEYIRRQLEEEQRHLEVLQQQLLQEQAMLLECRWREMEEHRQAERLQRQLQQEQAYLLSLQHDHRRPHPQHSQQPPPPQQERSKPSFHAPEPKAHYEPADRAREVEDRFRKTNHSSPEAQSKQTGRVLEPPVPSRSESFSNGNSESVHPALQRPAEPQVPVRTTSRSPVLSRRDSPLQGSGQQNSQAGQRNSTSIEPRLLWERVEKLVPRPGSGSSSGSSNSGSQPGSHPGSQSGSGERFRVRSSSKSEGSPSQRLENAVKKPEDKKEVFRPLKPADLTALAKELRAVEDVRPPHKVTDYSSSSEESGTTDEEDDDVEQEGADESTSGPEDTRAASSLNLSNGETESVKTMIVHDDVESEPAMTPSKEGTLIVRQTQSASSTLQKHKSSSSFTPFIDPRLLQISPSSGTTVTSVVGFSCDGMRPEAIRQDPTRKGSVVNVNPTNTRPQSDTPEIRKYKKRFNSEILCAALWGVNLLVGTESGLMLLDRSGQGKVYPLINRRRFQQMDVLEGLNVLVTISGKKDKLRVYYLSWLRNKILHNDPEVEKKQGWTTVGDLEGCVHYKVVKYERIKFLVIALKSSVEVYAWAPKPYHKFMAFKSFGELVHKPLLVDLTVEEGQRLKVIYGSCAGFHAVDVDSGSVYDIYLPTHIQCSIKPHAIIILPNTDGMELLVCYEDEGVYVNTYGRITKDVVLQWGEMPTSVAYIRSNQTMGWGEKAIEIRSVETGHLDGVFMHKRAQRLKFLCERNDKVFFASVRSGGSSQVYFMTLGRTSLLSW
Chain of MKNK1 (Q9BUB5 whole entry): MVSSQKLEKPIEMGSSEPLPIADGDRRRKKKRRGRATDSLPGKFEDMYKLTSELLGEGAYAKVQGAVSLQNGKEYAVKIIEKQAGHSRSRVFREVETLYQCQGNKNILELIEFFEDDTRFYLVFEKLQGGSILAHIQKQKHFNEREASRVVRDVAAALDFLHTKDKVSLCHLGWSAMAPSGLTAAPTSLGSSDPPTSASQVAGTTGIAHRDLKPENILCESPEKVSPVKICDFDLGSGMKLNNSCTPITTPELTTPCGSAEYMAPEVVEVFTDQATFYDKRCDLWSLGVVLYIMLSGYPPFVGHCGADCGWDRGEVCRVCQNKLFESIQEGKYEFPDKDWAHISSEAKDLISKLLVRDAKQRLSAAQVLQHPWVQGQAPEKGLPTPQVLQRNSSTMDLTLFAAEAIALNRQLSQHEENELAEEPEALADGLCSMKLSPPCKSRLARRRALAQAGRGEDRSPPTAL

As to `C#Cc1cc(Nc2ncnc3cc(I)ccc23)ccc1Cl` [Compound 41], the Residual activity at DDR2 (DDR2, 1.0E-06 M) is given as 81 % of control; at DDR2 (DDR2, 1.0E-07 M), 91 % of control; on EGFR (1.0E-06 M), 8 % of control; at EGFR (1.0E-07 M), 28 % of control; at ERBB2 (ERBB2, 1.0E-06 M), 78 % of control; on ERBB2 (ERBB2, 1.0E-07 M), 96 % of control. Also, the Residual activity is 59 % of control at LCK (1.0E-06 M); 78 % of control on LCK (1.0E-07 M); 41 % of control at MAP4K4 (MAP4K4, 1.0E-06 M); 73 % of control on MAP4K4 (MAP4K4, 1.0E-07 M); 63 % of control at MKNK1 (MKNK1, 1.0E-06 M); 79 % of control on MKNK1 (MKNK1, 1.0E-07 M). The EGFR inhibition on EGFR (1 μM) and at EGFR (10 μM) was above 50% each time. This molecule came in with an MAP4K4 inhibition on MAP4K4 above 50%. Moreover, the PRKG2 inhibition on PRKG2 (10 μM) is reported as above 50%. Also, the results for the “Residual activity, PRKG2” value at PRKG2 (assay conc. 1.0E-06 M) and on PRKG2 (assay conc. 1.0E-07 M) were 20 % of control and 100 % of control, respectively. Besides, the SLK inhibition on SLK is recorded as above 50%. Further, the “Residual activity, SLK” value is 32 % of control on SLK (assay conc. 1.0E-06 M) and 67 % of control at SLK (assay conc. 1.0E-07 M).

For the molecule `C#Cc1cc(Nc2ncnc3cc(OC)c(OC)cc23)ccc1Cl` [Compound 45], the DDR2 inhibition at DDR2 (10 μM) is listed as above 50%. The Residual activity on DDR2 (DDR2, 1.0E-06 M) is listed as 35 % of control; on DDR2 (DDR2, 1.0E-07 M) it was 87 % of control; at EGFR (1.0E-06 M), 0 % of control; on EGFR (1.0E-07 M), 2 % of control; at ERBB2 (ERBB2, 1.0E-06 M), 11 % of control; at ERBB2 (ERBB2, 1.0E-07 M) it was 44 % of control. For the same molecule, the Residual activity is recorded as 36 % of control on LCK (1.0E-06 M); 94 % of control at LCK (1.0E-07 M); 48 % of control on MAP4K4 (MAP4K4, 1.0E-06 M); 87 % of control at MAP4K4 (MAP4K4, 1.0E-07 M); 30 % of control at MKNK1 (MKNK1, 1.0E-06 M); 63 % of control on MKNK1 (MKNK1, 1.0E-07 M). For the same molecule, the EGFR inhibition at EGFR (1 μM) and at EGFR (10 μM) was above 50% each time. For the same molecule, the ERBB2 inhibition result on ERBB2 (1 μM) is “moderate inhibition”. The molecule further displayed an LCK inhibition at LCK (10 μM) above 50%. For the same molecule, the MAP4K4 inhibition at MAP4K4 was above 50%. On MKNK1 (10 μM), this molecule came in with an MKNK1 inhibition above 50%. Further, the “Residual activity, PRKG2” value on PRKG2 (assay conc. 1.0E-06 M) is given as 80 % of control; on PRKG2 (assay conc. 1.0E-07 M) it was 118 % of control. Besides, on SLK, the SLK inhibition is listed as above 50%. The “Residual activity, SLK” value at SLK (assay conc. 1.0E-06 M) is reported as 18 % of control; on SLK (assay conc. 1.0E-07 M) it was 76 % of control.
